Measurements published in patent EP4729530A1, “NOVEL PEPTIDE AND USE THEREOF” (Gemvax & Kael Co., Ltd., priority 2023, dated 2024).

Columns and labels:
[1] = Stability in human plasma (LC-MS, residual peptide); format: in vitro ADME; settings: 37 °C, read-out: percentage of residual peptide relative to the peptide amount before reaction
Description: The peptide was added to human plasma and diluted to a concentration of 5 µM, followed by incubation at 37 °C for 10, 60, and 240 minutes with stirring. The reaction mixture was collected and pretreated by plasma protein precipitation using methanol containing 0.1% formic acid. The resulting supernatants were collected and analyzed by LC-MS under the conditions shown in Table 1 below to determine the percentage of residual peptide relative to the initial peptide amount.

[2] = Pharmacokinetic profile in rats (intravenous and subcutaneous administration); format: in vivo; settings: Sprague Dawley rats
Description: To determine the pharmacokinetic profile of GV2002 prepared in Example 1, plasma was collected from rats administered with GV2002. The collected plasma was pretreated by protein precipitation using nine times the volume of methanol containing 0.1% formic acid, followed by centrifugation at 16,100 g for 10 minutes.
(§1) GV2002 was administered intravenously (IV) to three Sprague Dawley rats per group. Blood samples were collected at 0.033, 0.083, 0.17, 0.25, 0.5, 1, and 2 hours after administration. The collected blood samples were centrifuged to separate plasma, pretreated, and analyzed using LC-MS. Pharmacokinetic parameters were calculated using the non-compartmental analysis model of the Phoenix WinNonlin (Pharsight, ver. 6.4, USA) program.
as §1, with “subcutaneously (SC)” for “intravenously (IV)”, “of” for “of the”, “(Pharsight” for “(Pharsight,”, “USA).” for “USA) program.”

[3] = test system: AT8 (phospho-Tau S202/T205); test: Immunofluorescence staining of brain tissue (AT8) for tau hyperphosphorylation; format: in vivo, mouse; settings: GV2002 2 mg/kg subcutaneous, 3 times/week, 21 weeks
Description: (§2) In vivo experiments were performed on the 4R tauopathy mouse groups shown in FIG. 4 according to the schedule shown in FIG. 5 and the outline in Table 3 below.
The brains of a 4R tauopathy mouse model administered GV2002 for 5 months, from 7.5 to 12.5 months of age, were removed and analyzed using immunofluorescence staining.
For brain tissue sampling, the 4R tauopathy mouse models were anesthetized, and saline was perfused intracardially, after which the blood was removed using a perfusion pump device. Then, the brains were removed and weighed. The brains to be used for tissue staining experiments were fixed in a 4% PFA solution for 24 hours. The fixed brain tissue was immersed in a 20% sucrose solution for 24 hours and then in a 30% sucrose solution for 48 hours for dehydration. The dehydrated brain tissue was removed, excess moisture was eliminated, and the brain tissue and a cryoembedding agent (OCT compound) were placed together in a mold to protect the tissue, after which the brain tissue was rapidly frozen using dry ice. The frozen brain tissue mold was stored in a -80 °C freezer. Afterwards, the brain tissue was sectioned into 30-µm-thick sections using a cryostat and stored in a 0.05% sodium azide solution.
For immunofluorescence staining of brain tissue, 30-µm-thick frozen brain sections were selected according to brain region, washed three times with PBS for 10 minutes each, fixed in 3.7% formaldehyde for 5 minutes, and washed three times with PBS for 10 minutes each. The brain tissue samples were permeabilized in 0.3% PBS-T solution, and then blocked in 5% BSA solution in PBS for 1 hour. The brain tissues were incubated overnight in 3% BSA and 0.1% Tween-20 solution in PBS containing AT8 (phospho-Tau S202/T205) antibody diluted at a ratio of 1:200, which targets tau hyperphosphorylation. The brain tissues were washed three times with PBS for 10 minutes each. The brain tissues were then incubated for 1 hour at room temperature in 3% BSA and 0.1% Tween-20 solution in PBS containing secondary antibody diluted 1:500. The brain tissues were immersed in PBS solution and washed once for 10 minutes. […] The brain tissues were immersed in PBS solution and washed three times for 10 minutes each, and fluorescence imaging was performed using a slide scanner.
To obtain fluorescence images of the stained brain tissue, brain tissue slides were scanned using a Zeiss Axio Scan (Zeiss, Oberkochen, Germany). AT8 fluorescence levels in each brain tissue region obtained through fluorescence imaging, i.e., the somatosensory cortex, hippocampus (CA1), motor cortex, and substantia nigra, were calculated using ImageJ software (NIH). The calculated values were analyzed using one-way ANOVA with Dunnett's multiple comparisons test.

4R Tau^P301L-BiFC mouse = test: Rota-rod experiment in 4R tauopathy mouse model; format: in vivo; settings: 3 times/week, 21 weeks
Description: as §2
Rota-rod experiments were conducted on mice with 4R tauopathy treated with GV2002 for five months, from 7.5 to 12.5 months of age, to evaluate the efficacy of GV2002 in alleviating impairment in motor ability.
On day 1, acclimation training was conducted, and on day 2, behavioral testing was conducted. Prior to acclimation training and behavioral testing, mice were allowed to acclimate to the testing environment for one hour. During acclimation training, mice walked on a […] at a speed ranging from 5 to 25 rpm for 300 seconds, and any mouse that lost its balance and fell to the floor was allowed to walk again. […] The measured values were analyzed using a two-way ANOVA with Dunnett's multiple comparisons test.

tau oligomer formation = test: Brain Tau-BiFC imaging for tau oligomer formation; format: in vivo, mouse; settings: GV2002 2 mg/kg subcutaneous, 3 times/week, 21 weeks
Description: as §2
Brains from a 4R tauopathy mouse model administered GV2002 for five months, from 7.5 to 12.5 months of age, were removed and analyzed using lipid staining.
Brain tissue sampling was performed in the same manner as in Example 4-5.
To remove autofluorescence from brain tissues through lipid staining, a 0.05% Sudan Black B solution in 70% ethanol was stirred overnight and then filtered through a 0.22-µm filter. 30-µm-thick frozen brain sections from each region were immersed in deionized water and washed three times for 5 minutes each. The brain tissue was then immersed in the prepared 0.05% Sudan Black B solution for 10 minutes to perform staining. The brain tissue stained with Sudan Black B was immersed in 0.1% PBS-T solution and washed at 30-second intervals to adjust the staining intensity and then washed three times with deionized water for 5 minutes each. Nuclear staining was performed by immersing the brain tissue in a 0.2-µg/mL Hoechst solution in deionized water for 20 minutes. The tissue was then washed three times with deionized water for 5 minutes each. Tau-BiFC imaging was performed using a slide scanner.
To obtain fluorescence images of the stained brain tissue, brain tissue slides were scanned using a Zeiss Axio Scan. Tau-BiFC fluorescence levels in each brain region obtained through fluorescence imaging, i.e., the somatosensory cortex, hippocampus (CA1), motor cortex, and substantia nigra, were calculated using ImageJ software. The calculated values were analyzed using one-way ANOVA with Dunnett's multiple comparisons test.

Substance Ac-EARPALLTSRLRFIPK-NH2 [GV2002] has a remaining at 1 h, 5 µM ([1]; 60 minutes) of 57.2%, a remaining at 4 h, 5 µM ([1]; 240 minutes) of 46.5% and an AUC(0-t) ([2]; rat, plasma, intravenous (IV), non-compartmental analysis) of 438 ng·h/mL. The “in vivo persistence after subcutaneous administration” value ([2]; subcutaneous (SC)) was “remains in a stable state in vivo without degradation and persists for a long period of time”, the “AT8 fluorescence intensity, reduction compared to the vehicle-administered group” value (shortened to “AT8 fluorescence intensity, reduction”) ([3]; hippocampus region) was 62% and the “AT8 fluorescence intensity, reduction” value ([3]; motor cortex region) was 65%. The “AT8 fluorescence intensity, reduction” value ([3]; somatosensory cortex region) was 57%, the “AT8 fluorescence intensity, reduction” value ([3]; substantia nigra region) was 69% and the “motor ability (Rota-rod) compared to the reference compound LMTM-administered group” value (4R Tau^P301L-BiFC mouse; GV2002 2 mg/kg subcutaneous vs LMTM 15 mg/kg oral) was “relatively enhanced motor ability”. The “motor ability (Rota-rod, time until fall) compared to the vehicle-administered group” value (4R Tau^P301L-BiFC mouse; GV2002 2 mg/kg subcutaneous, 7.5 to 12.5 months of age) was “significantly improved motor ability”, the “Tau-BiFC fluorescence intensity, reduction compared to the vehicle-administered group” value (tau oligomer formation; hippocampus region) was 63% and the “Tau-BiFC fluorescence intensity, reduction compared to the vehicle-administered group” value (tau oligomer formation; motor cortex region) was 56%. For the same substance, the “Tau-BiFC fluorescence intensity, reduction compared to the vehicle-administered group” value (tau oligomer formation; somatosensory cortex region) was 58% and the “Tau-BiFC fluorescence intensity, reduction compared to the vehicle-administered group” value (tau oligomer formation; substantia nigra region) was 56%.
